Legend:
TA1535 = experiment: Ames Assay, plate incorporation, strain TA1535; conditions: with S9 mixture
Description: (§1) A representative number of compounds were tested in Ames Assay for assess the mutagenic potential.
(§2) Preparations of culture media/plates and reagents: 0.5 mmol L-histidine-0.5 mmol/L biotin solution; 20% glucose solution; nutrient broth; KCl salt solution (1.65 M KCl+0.4 M MgCl2); 0.2 M phosphate buffer (pH 7.4); co-factors (NADP; glucose 6-phosphate) for S9 mixture; top agar medium; minimal agar medium (Vogel-Bonner medium E); bottom agar medium.
(§3) Preparation of the enriched culture: Take nutrient broth 5 mL, added it to sterile tubes with the cryopreserved strain culture TA1535 and TA1537. After inoculation in nutrient broth, the cultures were kept at 37° C. with oscillation of 100 times/min for 10 hours. The strain cultures should have about 1˜2×10^9 viable cells per milliliters.
(§4) Preparation of 10 ml S9 mixture: Co-factor mixture 9 mL by glucose 6-phosphate 42.3 mg, […] 14.2 mg, 6-phosphate dehydrogenase (3 unit/μl) 10 μl plus riboflavin (9.6 mg dissolved in 700 μL water), and then mixed with 1 ml of the induced rat S9.
(§5) Plate incorporation method: In the experiment, place 2 ml of the top agar medium containing 0.5 mmol/L histidine-0.5 mmol/L biotin into the test tubes kept in 45° C. water bath. Into a 1.5 ml sterile Eppendorf tube, it was added 0.1 ml of the bacterial strain in the enriched broth, 0.1 ml of the test compound solution and 0.5 ml of the S9 mixture, thoroughly mixed and incubated for 30 minutes at 37° C. with shaker speed at 150 rpm/min. The liquid mixture in the Eppendorf tube was added to the top agar medium. After mixing it was poured rapidly into the plates with bottom agar plate, turning the plates to allow uniform distribution. Initially placed horizontally for condensation and then placed invertly for 48 hours at 37° C. Count and record the number of revertant colonies per dish.
(§6) Experiment controls: In addition to the set of doses (3.3, 8.3, 33.3 and 66.6 μM) for the test compounds, here are the controls: blank control, sterile control, solvent control, positive mutagen control (2-aminoanthracene at 10 μg/dish).

TA1537 = experiment: Ames Assay, plate incorporation, strain TA1537; conditions: with S9 mixture
Description: as §1, §2, §3, §4, §5, §6

[1] = system: NCI-H-1975 cell line xenograft; experiment: In vivo subcutaneous NCI-H-1975 cell line xenograft model in nude mice; design: species or system Balb/c nude mice
Excerpt: A representative protocol for the in vivo experiment is as followed to establish the subcutaneous NCI-H-1975 cell line xenograft model in nude mice and to evaluate the in vivo therapeutic efficacy of the compounds: Animals: Male Balb/c nude mice (6˜8 weeks old) were obtained from SLAC Laboratory Animal, Shanghai, China. Animals were maintained under SPF conditions in sterile filter top cages and housed on HEPA-filtered ventilated racks. Animals received sterile rodent chow and water ad libitum. Cell line: NCI-H-1975 cell line, S.c. Xenograft Models in Athymic Mice: Cells for implantation into athymic mice were harvested and pelleted by centrifugation at 1200 r/min for 5 min. Cells were washed once and resuspended in sterile PBS buffer with 5×10^6 in 200 μl. Then cells were implanted s.c. into the right scapular region of each mouse and allowed to grow to 200-300 mm^3 before the administration of compound. Preparation of the Dose Formulation: each compound was suspensioned in 0.5% CMC-Na. Randomization: When tumor volumes approach 200-300 mm^3, the mice will be randomized into 5 groups according to the tumor volume. The day will be denoted as D1 and the treatments will be started at this day. Administered: Dose will be administered with oral gavage needle once daily for number of days. Treatment of compounds administered in 0.5% CMC—Na by p.o. gavage was initiated when tumors were 200˜300 mm^3 in volume. Observations: After inoculation, the animals will be checked daily for morbidity and mortality. At the time of routine monitoring, the animals will be checked for any effects of tumor growth and treatments on normal behavior such as mobility, body weight gain/loss (body weights will be measured twice weekly or every other day), eye/hair matting and any other abnormal effect. Death and observed clinical signs will be recorded on the basis of the numbers of animals within each subset. Tumor Size Measurements: Tumor volume was determined by measurement with electronic vernier calipers every 3 days and tumor volume was calculated as the product of its length×width^2×0.5. Effect studies: Tumor volume was expressed on indicated days as the mean tumor volume±SD. Percentage (%) inhibition values were measured for drug-treated mice compared with vehicle-treated mice and are calculated as follows: Tumor growth inhibition(TGI, %)=100−[MTV treated/MTV control]×100. Significant differences between the treated versus the control groups (p<0.05) were determined using t test. At study endpoint, after blood collection, mice were practicsed euthanasia by cervical dislocation, the tumor tissue was collected first, then abdominal cavity was cut open, liver and spleen were excised, then weight after the gallblader was removed respectively. Organ weight and Organ/body weight ratios between the treated versus the control groups were compared. Ratios was calculated as follows: Ratios=Organ weight/(body weight-tumor weight). Both organ weight and Organ/body weight ratios were also expressed as mean±SD, and significant differences between the treated versus the control groups (p<0.05) were determined using t test.
The following Table D lists compounds representative of the invention and their activity in subcutaneous NCI-H-1975 cell line xenograft model in nude mice described above. Compound 11 and Dacomitinib were dosed at 15 mg/kg by oral gavage once daily for number of days. Tumor growth inhibition (TGI, %) was calculated.

SK-Br-3 Cell line = experiment: Cell proliferation assay (MTT), SK-Br-3; assay type: cell-based; conditions: Homo sapiens, 72 hours treatment
Description: (§7) A representative number of compounds were assayed against different cancer cell lines such as NCI-H-1975 or A431 using the cell proliferation assays:
(§8) Cell Proliferation Assays: • 1. 5×10^3 cells per well in 100 μl of medium were seeded in 96-well plate, here the medium contained 5% FBS • 2. 24 hours later, 100 μl fresh medium was added with various concentrations of compounds into each well, while the medium here was free of FBS • 3. After the cells were treated with compounds for 72 hours, 20 μl MTT (5 mg/ml) was added into each well, and then the assay plate was incubated at 37° C. for 4 more hours. • 4. The assay plate was centrifuged at 800 g for 10 min. The medium was aspirated, 150 μl DMSO was added into each well. The plate was gently shaked for 10 min. • 5. The absorbance at 570 nm was measured on the plate reader. • 6. IR %=(WC−WT)/WC*100%.

A431 Cell line = experiment: Cell proliferation assay (MTT), A431; assay type: cell-based; conditions: Homo sapiens, A-431, 72 hours treatment
Description: as §7, §8

TA1535 and TA1537 = experiment: Ames Assay, overall mutagenic potential; conditions: TA1535 and TA1537, with S9 mixture, 3.3-66.6 μM
Description: as §1, §2, §3, §4
Plate incorporation method: In the experiment, place 2 ml of the top agar medium containing 0.5 mmol/L histidine-0.5 mmol/L biotin into the test tubes kept in 45° C. water bath. […]

EGFR(T790M/L858R) = EGFR(T790M/L858R) (Homo sapiens (Human), UniProt P00533, L858R/T790M); experiment: In vitro EGFR(T790M/L858R) kinase activity inhibition assay (Kinase-Glo Plus luminescence); assay type: biochemical; conditions: 10 μM ATP, poly(Glu,Tyr) substrate
Chain of EGFR(T790M/L858R) (P00533 25-1210 T790M/L858R): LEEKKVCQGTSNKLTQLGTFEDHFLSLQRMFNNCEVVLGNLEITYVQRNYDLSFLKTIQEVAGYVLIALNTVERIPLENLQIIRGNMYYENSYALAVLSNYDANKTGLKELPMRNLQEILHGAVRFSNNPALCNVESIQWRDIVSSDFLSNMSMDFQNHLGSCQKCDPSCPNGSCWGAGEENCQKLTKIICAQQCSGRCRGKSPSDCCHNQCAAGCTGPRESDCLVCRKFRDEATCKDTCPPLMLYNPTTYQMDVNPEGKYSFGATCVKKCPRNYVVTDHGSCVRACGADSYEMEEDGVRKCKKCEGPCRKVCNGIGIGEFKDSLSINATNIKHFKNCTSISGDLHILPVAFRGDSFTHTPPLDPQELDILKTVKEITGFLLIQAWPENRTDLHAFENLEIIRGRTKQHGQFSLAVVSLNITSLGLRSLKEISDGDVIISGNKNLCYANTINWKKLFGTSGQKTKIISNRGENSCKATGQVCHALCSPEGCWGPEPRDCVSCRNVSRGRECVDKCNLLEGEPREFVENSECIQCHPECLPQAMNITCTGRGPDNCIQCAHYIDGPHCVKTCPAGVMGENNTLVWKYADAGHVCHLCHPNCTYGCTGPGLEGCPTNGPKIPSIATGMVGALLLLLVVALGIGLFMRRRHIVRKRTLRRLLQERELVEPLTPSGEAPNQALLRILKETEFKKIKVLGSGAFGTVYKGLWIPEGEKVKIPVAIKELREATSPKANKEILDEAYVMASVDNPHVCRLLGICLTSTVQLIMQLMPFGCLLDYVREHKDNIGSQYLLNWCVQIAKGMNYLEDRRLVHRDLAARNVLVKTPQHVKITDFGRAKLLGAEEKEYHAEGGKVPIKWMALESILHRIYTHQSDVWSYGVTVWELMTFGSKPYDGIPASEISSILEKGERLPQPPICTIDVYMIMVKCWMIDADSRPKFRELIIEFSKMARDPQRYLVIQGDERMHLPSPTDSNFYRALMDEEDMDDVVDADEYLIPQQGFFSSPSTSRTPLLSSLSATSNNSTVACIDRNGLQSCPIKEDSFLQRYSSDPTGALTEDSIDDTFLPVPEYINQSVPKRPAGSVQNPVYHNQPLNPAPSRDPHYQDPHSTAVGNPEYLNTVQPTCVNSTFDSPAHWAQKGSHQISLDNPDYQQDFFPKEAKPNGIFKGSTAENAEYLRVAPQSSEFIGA
Description: (§9) • 1. […] It measures kinase activity by quantitating the amount of ATP remaining in solution following a kinase reaction. The luminescent signal from the assay is correlated with the amount of ATP present and is inversely correlated with the amount of kinase activity. […] The luminescence data were analyzed using the computer software, Graphpad Prism. […] The values of % activity versus a series of compound concentrations were then plotted using non-linear regression analysis of Sigmoidal dose-response curve generated with the equation Y=B+(T−B)/1+10^((LogEC50−X)×Hill Slope), where Y=percent activity, B=minimum percent activity, T=maximum percent activity, X=logarithm of compound and Hill Slope=slope factor or Hill coefficient. The IC50 value was determined by the concentration causing a half-maximal percent activity.

EGFR = EGFR (Homo sapiens (Human), UniProt P00533); experiment: In vitro EGFR kinase activity inhibition assay (Kinase-Glo Plus luminescence); assay type: biochemical; conditions: 10 μM ATP, poly(Glu,Tyr) substrate
Chain of EGFR (P00533 25-1210): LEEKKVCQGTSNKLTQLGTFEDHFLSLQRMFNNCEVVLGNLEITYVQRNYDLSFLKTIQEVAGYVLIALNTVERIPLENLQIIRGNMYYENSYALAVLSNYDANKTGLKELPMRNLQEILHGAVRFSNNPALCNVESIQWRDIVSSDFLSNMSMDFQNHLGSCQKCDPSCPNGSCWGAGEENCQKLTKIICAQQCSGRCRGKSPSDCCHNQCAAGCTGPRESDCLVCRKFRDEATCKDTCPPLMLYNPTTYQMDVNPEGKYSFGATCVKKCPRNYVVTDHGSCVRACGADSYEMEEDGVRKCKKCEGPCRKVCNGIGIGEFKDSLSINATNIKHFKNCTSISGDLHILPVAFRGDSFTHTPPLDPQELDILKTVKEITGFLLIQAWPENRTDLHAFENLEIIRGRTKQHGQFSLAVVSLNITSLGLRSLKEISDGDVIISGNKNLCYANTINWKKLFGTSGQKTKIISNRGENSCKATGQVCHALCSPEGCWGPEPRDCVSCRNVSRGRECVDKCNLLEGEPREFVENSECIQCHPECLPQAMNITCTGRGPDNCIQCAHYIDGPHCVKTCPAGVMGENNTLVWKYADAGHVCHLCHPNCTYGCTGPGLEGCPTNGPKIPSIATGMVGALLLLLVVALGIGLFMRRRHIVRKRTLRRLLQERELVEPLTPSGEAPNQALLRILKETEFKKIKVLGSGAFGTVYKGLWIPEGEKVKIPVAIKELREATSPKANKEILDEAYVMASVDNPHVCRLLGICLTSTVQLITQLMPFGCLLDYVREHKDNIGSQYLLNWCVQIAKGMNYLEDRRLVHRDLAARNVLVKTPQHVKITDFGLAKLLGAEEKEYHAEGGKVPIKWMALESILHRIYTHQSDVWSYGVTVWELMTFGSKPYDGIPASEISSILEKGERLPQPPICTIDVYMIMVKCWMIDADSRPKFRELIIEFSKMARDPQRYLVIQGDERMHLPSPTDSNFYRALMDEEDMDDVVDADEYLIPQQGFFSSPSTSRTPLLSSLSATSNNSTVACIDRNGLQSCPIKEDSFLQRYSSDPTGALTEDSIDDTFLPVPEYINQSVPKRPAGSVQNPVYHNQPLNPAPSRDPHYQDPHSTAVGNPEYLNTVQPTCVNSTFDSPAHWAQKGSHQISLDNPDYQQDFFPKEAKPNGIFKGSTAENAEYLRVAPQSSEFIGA
Description: as §9

[2] = Day 3, 15 mg/kg oral gavage once daily
[3] = Day 7, 15 mg/kg oral gavage once daily

| Structure (SMILES) | TA1535 Colony number (TA1535; 17.27 uM (10 μg/dish)) | TA1537 Colony number (TA1537; 17.27 uM (10 μg/dish)) | Tumor growth inhibition (TGI, %) [1, 2] [%] | Tumor growth inhibition (TGI, %) [1, 3] [%] | IC50 (SK-Br-3 Cell line) [µM] | IC50 (A431 Cell line) [µM] | Ames Assay result (mutagenic potential) (TA1535 and TA1537) | IC50 (EGFR(T790M/L858R)) [µM] | TA1535 Colony number (TA1535; 3.33 uM) | TA1535 Colony number (TA1535; 8.33 uM) | TA1535 Colony number (TA1535; 33.3 uM) | TA1535 Colony number (TA1535; 66.6 uM) | TA1537 Colony number (TA1537; 3.33 uM) | TA1537 Colony number (TA1537; 8.33 uM) | TA1537 Colony number (TA1537; 33.3 uM) | TA1537 Colony number (TA1537; 66.6 uM) | IC50 (EGFR) [µM] | Tumor growth inhibition compared with Dacomitinib ([1]; 15 mg/kg oral gavage once daily) |
| --- | --- | --- | --- | --- | --- | --- | --- | --- | --- | --- | --- | --- | --- | --- | --- | --- | --- | --- |
| Nc1ccc2cc3ccccc3cc2c1 [2-aminoanthracene, reference compound] | 205 | 260 |  |  |  |  |  |  |  |  |  |  |  |  |  |  |  |  |
| COc1cc2ncnc(Nc3ccc(F)c(Cl)c3)c2cc1NC(=O)/C=C/CN1CCCCC1 [Dacomitinib, reference compound] |  |  | 19.86 | 75.36 | 0.225 | 19.5 |  |  |  |  |  |  |  |  |  |  |  |  |
| C#Cc1cccc(Nc2ncnc3cc(OC)c(NC(=O)/C=C/CN4CCCCC4)cc23)c1 [Compound 12, (E)-N-(4-((3-ethynylphenyl)amino)-7-methoxyquinazolin-6-yl)-4-(piperidin-1-yl)but-2-enamide] |  |  |  |  | 0.116 | 4.9 | positive | < 0.1 | 17 | 9 | 17 | 9 | 8 | 22 | 47 | 66 | < 0.01 |  |
| C#Cc1cccc(Nc2ncnc3cc(OCC)c(NC(=O)/C=C/CN4CCCCC4)cc23)c1 [Compound 11, (E)-N-(7-ethoxy-4-((3-ethynylphenyl)amino)quinazolin-6-yl)-4-(piperidin-1-yl)but-2-enamide] |  |  | 30.11 | 83.25 | 0.0852 | 2.95 | negative | 0.022 | 10 | 13 | 18 | 12 | 14 | 12 | 23 | 22 | 0.0017 | significant better tumor growth inhibition compared with Dacomitinib |
